From patent US20100266604A1, “USE OF TAM RECEPTOR INHIBITORS AS IMMUNOENHANCERS AND TAM ACTIVATORS AS IMMUNOSUPPRESSORS” (The Salk Institute for Biological Studies, priority 2007, published 2010)

What was measured:
Format in all cases: cell-based, mouse
[1] = system: IRAK-M, SHIP, ATF-3, IRF-4, Triad3A and Tollip mRNA in BM-DCs; experiment: Q-PCR of other negative regulators of TLR signaling; conditions: following TAM receptor activation with 50 nM Gas6
Experimental: (§1) Splenic DCs (1×10^6 cells/ml) or BM-DCs (5×10^6 cells/ml) were cultured in serum-free medium and treated with the indicated concentrations of murine recombinant Gas6, murine recombinant Protein S, the TLR ligands indicated above, recombinant mouse IFNα (PBL Biomedical laboratories), recombinant mouse Axl-FC chimera (R&D), cyclohexamide (Sigma) or Actinomycin D (Sigma). Whole cell lysates and RNA extraction were performed as indicated below.
(§2) After stimulation, cells were harvested, and total RNA was isolated using the RNeasy mini kit (Qiagen). Reverse transcription was performed according to manufacturer instructions with RT Superscript III (Invitrogen). PCR reactions were performed on an ABI Prism 7700 Sequence Detection System using SYBRGreen PCR master mix (Applied Biosystems). Each reaction was normalized against the expression of β-actin or GAPDH. Analyses of dissociation curves were performed with SDS software (Applied Biosystems) to ensure the absence of nonspecific amplification. Q-PCR primers used herein are listed below.

[2] = system: SOCS1 and SOCS3 mRNA in DCs; experiment: Q-PCR of SOCS1 and SOCS3 mRNA in DCs
Experimental: as §1, §2

[3] = system: TRAF6 and TRAF3 polyubiquitylation in BM-DCs; experiment: Ubiquitylation assay of TRAF6 and TRAF3; conditions: 30 minutes LPS, 2-hour prior incubation with Gas6
Experimental: For ubiquitylation assays, 5×10^6 BM-DCs per condition were harvested in PBS containing 1% SDS and boiled for 5 minutes. PBS containing 1% Triton X-100, 1 mM DTT, 1 mM Na3VO4, 5 mM NaF and protease inhibitors (Complete, Roche) was added and the mixture was sonicated. Lysates were precleared for 1 hour by incubation with Immobilized rProteinA (RepliGen) and incubated overnight with primary antibody at 4° C. Immobilized rProteinA was added for the last 2 hours. The immunoprecipitates were washed in PBS containing 0.2% NP-40 and 0.5 M LiCl and resuspended and boiled in NuPage LDS sample buffer (Invitrogen) with 100 μM DTT.

[4] = system: IκBα and IκBβ degradation (NF-κB pathway) in BM-DCs; experiment: Quantitative Li-Cor Odyssey Western blot of TLR-induced IκB degradation
Experimental: as §1
(§3) DCs were washed in PBS and harvested in NuPage LDS sample buffer (Invitrogen) with 100 μM DTT. Whole cell lysates were resolved by electrophoresis, proteins were transferred to a PVDF membrane (Immobilon P, Millipore), blocked in 3% BSA/TBS-Tween-20 and probed with the indicated antibodies. For fluorescent western blotting with the Odyssey system, proteins were transferred to an Immobilon-FL PVDF membrane (Millipore) and incubated with two primary antibodies in 0.1% casein/PBS-Tween-20. Following incubation with fluorescence-labeled secondary antibodies, membranes were scanned with the Odyssey imaging system (LI-COR).

[5] = system: p38 and ERK1/2 phosphorylation in BM-DCs; experiment: Immunoblot of TLR-induced MAP kinase activation (phospho-p38, phospho-ERK1/2)
Experimental: as §1, §3

[6] = system: phospho-STAT1 (Y701), phospho-STAT2, phospho-STAT3 in DCs; experiment: Immunoblot of STAT phosphorylation in DCs
Experimental: as §1, §3

[7] = system: TLR-induced cytokine production in DCs; experiment: DC activation assay: TLR-induced cytokine production (ELISA / ISRE luciferase reporter)
Experimental: Splenic DC or BM-DCs (1×10^6 cells/ml) were cultured overnight in serum-free medium (StemSpan, StemCell Technologies Inc.) in the presence of the indicated concentrations of LPS from Salmonella minnesota R595 Re (Alexis), CpG-ODN 1668 (TCCATGACGTTCCGATGCT; SEQ ID NO: 19; Integrated DNA Technologies) or Poly I:C (InvivoGen) alone or in the presence of murine recombinant Gas6 (R&D Systems) or murine recombinant Protein S (produced as described in Prasad et al., (2006) Mol Cell Neurosci 33:96-108). Cytokine production was quantified in cell-free supernatants by ELISA (ebioscience for IL-12, IL-6 and TNFα and PBL-biomedical for IFNα) or by a luciferase assay using a cell line containing an ISRE-responsive element luciferase reporter construct for Type I IFN (Jiang et al., (2005) Nat Immunol 6:565-570).

DCs = experiment: DC viability after Gas6 treatment
[8] = system: IRF-7 and IFI-204 mRNA in DCs; experiment: Q-PCR of IRF-7 and IFI-204 mRNA in DCs; conditions: BM-DCs, addition of Gas6 alone
Experimental: as §1, §2

[9] = poly I:C, prior treatment with Gas6

Gas6: murine recombinant Gas6 (R&D Systems), TAM receptor ligand/agonist
induction of IRAK-M, SHIP, ATF-3, IRF-4, Triad3A, Tollip mRNAs [1]: none of these mRNAs displayed significant induction
SOCS3 mRNA peak expression ([2]; BM-DCs, 50 nM Gas6, around 90 minutes): approximately 10 fold
SOCS1 expression ([2]; Ifnar−/− DCs, Gas6): unable to up-regulate
Gas6-mediated induction of SOCS1 mRNA ([2]; STAT1−/− DCs): completely abolished
Gas6 induction of SOCS3 mRNA ([2]; STAT1−/− DCs): substantially reduced
SOCS1 mRNA expression increase ([2]; WT BM-DCs, 50 nM Gas6, 120 minutes): approximately 10 fold
LPS-induced polyubiquitylation of TRAF6 and TRAF3 [3]: potently inhibited
CpG-induced degradation of IκBα and IκBβ ([4]; BM-DCs, prior incubation with ligand): completely blocked
kinetics and magnitude of CpG-induced degradation of IκBα and IκBβ ([4]; in the presence of cycloheximide or actinomycin D): the same, irrespective of the presence or absence of Gas6
Activation of the NF-κB pathway by TLR3 [4, 9]: inhibited
CpG-induced phosphorylation of p38 and ERK1/2 ([5]; 1 μM CpG, 2-hour prior incubation with ligand): completely blocked
activation of p38 and ERK1/2 as a consequence of TLR4 ligation ([5]; LPS, prior incubation with Gas6): inhibited
Activation of the MAP kinase pathway by TLR3 [5, 9]: inhibited
activation of STAT2 and 3 ([6]; DC cultures, addition of Gas6): not detected
STAT1 tyrosine phosphorylation ([6]; Ifnar−/− BM-DCs, Gas6 application): incapable of activating STAT1
STAT1 activation (phospho-STAT1 Y701) ([6]; TAM triple mutant DCs, Gas6): not seen
STAT1 activation (phospho-STAT1 Y701) ([6]; wild-type DCs, incubation with Gas6): activated
LPS-induced production of IL-6 ([7]; Ifnar−/− DCs, Gas6): unable to inhibit
expression of IL6 triggered by LPS or CpG ([7]; STAT1−/− DCs, 50 nM Gas6, 15 hours): not inhibited
poly I:C-induced Type I IFN ([7]; TLR3 activated by poly I:C, 15 hours, 50 nM Gas6): comparable Gas6-mediated inhibition
LPS-induced IL6 and TNFα production ([7]; TLR4 activated by LPS, 15 hours, 50 nM Gas6): comparable Gas6-mediated inhibition
TLR9-induced production of Type I IFNs, IL6, and TNFα ([7]; wild-type DCs, overnight (15 hours) co-incubation with CpG, 50 nM Gas6): substantially inhibited
DC viability (DCs): unaffected
induction of IRF-7 and IFI-204 [8]: not induced
